The values that follow are results of earlier work, collected in patent publication US8796326B1, “Fire ant killer (F.A.K.)/ insecticide” (priority 2008, dated 2014).

This series concerns bacterial contamination on the hands and on treated products.

As to `Oc1cc(Cl)ccc1Oc1ccc(Cl)cc1Cl` [Triclosan, 5-chloro-2-(2,4-dichlorophenoxy)phenol], the “reducing and controlling bacterial contamination” value is given as “effective”.
